Assay results: patent US9186345B2 (priority 2004, dated 2015)
Structures can show the parent of a compound that is named as a salt.

System: plaque type psoriasis vulgaris
Assay: Simple-blind, own-control topical gel treatment of five psoriasis patients (Example 1)
Assay type: in vivo, human
Text: The gel used was of the following composition:
Patients for the treatment of psoriasis (five patients) were chosen as having a relatively secure diagnosis of plaque type psoriasis vulgaris with silvery scales covering the surface of the lesion. This disease tends to be chronic, and often difficult to treat with topical agents. All of the five patients treated were diagnosed by a dermatologist and had the diagnosis for over three years. None of these patients had arthritis.
After a treatment, which may vary from two weeks to one month, there was a considerable improvement both scaling, size, thickness and erythematous appearance of the lesions. The lesions in these patients were all symmetric and each patient was treated with the formulation of the present invention without the active compound on one side and with the active compound on the other. Each patient was treated as their own control (simple blind).
Two patients were treated with galantamine and three patients with donepezil.

Row | SMILES | adverse effect (human, in vivo) | adverse effect (gel containing 0.1% active compound, two days twice daily)
1 | COc1cc2c(cc1OC)C(=O)C(CC1CCN(Cc3ccccc3)CC1)C2 (centres unmarked) [donepezil, donepezil hydrochloride] | no adverse effect was noticed | –
2 | COc1ccc2c3c1O[C@H]1C[C@@H](O)C=C[C@@]31CCN(C)C2 [galantamine, galantamine hydrobromide] | – | no adverse effect was noticed
